Measured values as given in patent US12037322B2, “AHR agonists” (Eli Lilly and Company, priority 2021, dated 2024).

The compounds below were run against T1, hAHR (Homo sapiens, UniProt P35869) (assay: hAHR nuclear translocation assay). Conditions: Jump-In T-REx HEK293 cells expressing AhR-EGFP; 45 min incubation; ratio of EGFP intensity in nuclear over cytosol; 20-point curve.
T1 construct: expressed in transfected cells
T1 sequence (P35869 11-848): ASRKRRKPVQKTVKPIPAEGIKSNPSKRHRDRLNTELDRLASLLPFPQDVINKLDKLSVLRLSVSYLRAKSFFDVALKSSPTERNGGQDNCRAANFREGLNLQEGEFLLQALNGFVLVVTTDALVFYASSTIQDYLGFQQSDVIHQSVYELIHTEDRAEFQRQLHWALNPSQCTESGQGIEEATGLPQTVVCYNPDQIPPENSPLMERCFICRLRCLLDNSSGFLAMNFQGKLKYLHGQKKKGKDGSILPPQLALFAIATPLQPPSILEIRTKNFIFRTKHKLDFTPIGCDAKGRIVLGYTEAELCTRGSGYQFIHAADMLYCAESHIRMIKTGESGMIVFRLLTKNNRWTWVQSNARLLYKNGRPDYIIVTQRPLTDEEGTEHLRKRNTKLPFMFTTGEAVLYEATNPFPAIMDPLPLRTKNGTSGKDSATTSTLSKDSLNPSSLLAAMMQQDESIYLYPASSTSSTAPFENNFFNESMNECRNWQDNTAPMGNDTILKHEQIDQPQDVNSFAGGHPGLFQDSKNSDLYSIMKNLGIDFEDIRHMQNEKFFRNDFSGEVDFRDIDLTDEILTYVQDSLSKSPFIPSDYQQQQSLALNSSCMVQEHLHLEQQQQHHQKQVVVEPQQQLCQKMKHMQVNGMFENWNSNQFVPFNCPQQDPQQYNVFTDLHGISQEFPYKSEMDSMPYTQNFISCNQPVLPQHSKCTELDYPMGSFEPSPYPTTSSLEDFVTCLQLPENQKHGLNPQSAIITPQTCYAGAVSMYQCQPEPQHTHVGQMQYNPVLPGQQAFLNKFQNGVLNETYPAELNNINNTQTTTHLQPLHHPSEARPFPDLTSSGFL
Type: cell-based
Experimental: Stable cell lines were established using Jump-In™ T-REx™ HEK293 Retargeting Kit (Life Technologies). hAhR cDNA was cloned into the pJTI R4 CMV-TO EGFP vector. The EGFP was cloned to the C-terminal of AHR to form AhR-EGFP chimera. The pJTI R4 CMV-TO AhR-EGFP vector was transfected using FuGENE® HD into Jump-In™ T-REx™ HEK293 cells. Transfected cells were selected using 2.5 mg/ml G418 for 10 to 14 days, then expanded, harvested, and suspended in freeze media (FBS with 8% DMSO) at 2×10^7 cells/mL, and aliquots were stored in liquid nitrogen. One day before the assay date, cells were thawed and resuspended in DMEM with 5% FBS in the presence of 1 μg/mL Doxycycline and plated into ploy-L-Lysine coated […]-384 ULTRA Microplates (Perkin Elmer) at 12,000 to 15,000 cells per well and incubated at 37° C. and 5% CO2 overnight. On the assay date, compound was serially diluted (1:2) into 384-well nunc plates with DMSO using acoustic dispensing (ECHO). The dose response was a 20-point curve. Compound was resuspended in 40 μL of DMEM plus 0.1% BSA. The culture media was damped and 25 μL of DMEM plus 0.1% BSA was added, then 25 μL of compound in DMEM plus 0.1% BSA was added into cell plates. Cells were incubated with compounds at 37° C. and 5% CO2 for 45 min.
The final DMSO concentration was 0.2%. The media was damped after 45 minutes incubation. The cells were fixed with 40 μL of cold MeOH (−20° C.) for 20 min. The MeOH was damped and 50 μL of DPBS containing 1 μg/mL Hochst was added into the cell plates. The intensity of EGFP was quantitated by using OPERA PHENIX® or Operetta™ high content image system (Perkin Elmer) with 20× Water Objective and five field per well. The ratio of EGFP fluorescent intensity in nuclear over cytosol was analyzed using a 4-parameter nonlinear logistic equation to determine the potency of AhR agonists.
`C[C@@H]1CCc2c1cc(C(=O)Nc1ncc(F)cn1)c(=O)n2C` [Example 12, (5R)-N-(5-Fluoropyrimidin-2-yl)-1,5-dimethyl-2-oxo-6,7-dihydro-5H-cyclopenta[b]pyridine-3-carboxamide] showed an EC50 of 7.9 nM. For `COc1cnc(NC(=O)c2c(O)c3c(n(C)c2=O)CCC3C)nc1` (single isomer, unassigned) [Example 102, 4-Hydroxy-N-(5-methoxypyrimidin-2-yl)-1,5-dimethyl-2-oxo-6,7-dihydro-5H-cyclopenta[b]pyridine-3-carboxamide], the EC50 was 2.59 nM. For `CC1CCc2c1c(O)c(C(=O)Nc1ccsn1)c(=O)n2C` (single isomer, unassigned) [Example 38, 4-Hydroxy-N-isothiazol-3-yl-1,5-dimethyl-2-oxo-6,7-dihydro-5H-cyclopenta[b]pyridine-3-carboxamide], the EC50 was 1.01 nM. For `CC1CCc2c1c(O)c(C(=O)Nc1ccsn1)c(=O)n2C` (single isomer, unassigned) [Example 39, 4-Hydroxy-N-isothiazol-3-yl-1,5-dimethyl-2-oxo-6,7-dihydro-5H-cyclopenta[b]pyridine-3-carboxamide], the EC50 was 0.378 nM. For `Cn1c2c(cc(C(=O)Nc3ncccn3)c1=O)C(C)(C)CC2` [Example 46, 1,5,5-Trimethyl-2-oxo-N-pyrimidin-2-yl-6,7-dihydrocyclopenta[b]pyridine-3-carboxamide], the EC50 was 31.5 nM. In the case of `C[C@@H]1CCc2c1cc(C(=O)Nc1ccsn1)c(=O)n2C` [Example 18, (5R)-N-Isothiazol-3-yl-1,5-dimethyl-2-oxo-6,7-dihydro-5H-cyclopenta[b]pyridine-3-carboxamide], the EC50 is reported as 1.32 nM. With `CC1Cc2c(O)c(C(=O)Nc3ncccn3)c(=O)n(C)c2C1` (single isomer, unassigned) [Example 83, 4-Hydroxy-1,6-dimethyl-2-oxo-N-pyrimidin-2-yl-6,7-dihydro-5H-cyclopenta[b]pyridine-3-carboxamide] the EC50 was 233 nM. For `C[C@@H]1CCc2c1cc(C(=O)Nc1ncc(Cl)cn1)c(=O)n2C` [Example 25, (5R)-N-(5-Chloropyrimidin-2-yl)-1,5-dimethyl-2-oxo-6,7-dihydro-5H-cyclopenta[b]pyridine-3-carboxamide], the EC50 was 1.91 nM. For `CC1CCc2c1cc(C(=O)NC1CCCC1)c(=O)n2C` (single isomer, unassigned) [Example 60, N-Cyclopentyl-1,5-dimethyl-2-oxo-6,7-dihydro-5H-cyclopenta[b]pyridine-3-carboxamide], the EC50 was 396 nM. `CC1CCc2c1c(O)c(C(=O)Nc1ccc(F)cn1)c(=O)n2C` (single isomer, unassigned) [Example 100, N-(5-Fluoro-2-pyridyl)-4-hydroxy-1,5-dimethyl-2-oxo-6,7-dihydro-5H-cyclopenta[b]pyridine-3-carboxamide] showed an EC50 of 2.17 nM. For `Cn1c2c(cc(C(=O)Nc3ncc(F)cn3)c1=O)C(C)(C)CC2` [Example 14, N-(5-Fluoropyrimidin-2-yl)-1,5,5-trimethyl-2-oxo-6,7-dihydrocyclopenta[b]pyridine-3-carboxamide], the EC50 was 26.8 nM. `CC1CCc2c1c(O)c(C(=O)Nc1ccc(F)cn1)c(=O)n2C` (stereo not drawn) [Example 26, N-(5-Fluoro-2-pyridyl)-4-hydroxy-1,5-dimethyl-2-oxo-6,7-dihydro-5H-cyclopenta[b]pyridine-3-carboxamide] gave an EC50 of 2.87 nM. With `Cn1c2c(cc(C(=O)Nc3ccccc3)c1=O)COCC2` [Example 106, 1-Methyl-2-oxo-N-phenyl-7,8-dihydro-5H-pyrano[4,3-b]pyridine-3-carboxamide] the EC50 was 25.9 nM. `CC(C)C1CCc2c1cc(C(=O)Nc1ncc(F)cn1)c(=O)n2C` (single isomer, unassigned) [Example 112, N-(5-fluoropyrimidin-2-yl)-5-isopropyl-1-methyl-2-oxo-6,7-dihydro-5H-cyclopenta[b]pyridine-3-carboxamide] gave an EC50 of 0.865 nM. `CC1CCc2c1cc(C(=O)Nc1ncccn1)c(=O)n2C` (single isomer, unassigned) [Example 82, 1,5-Dimethyl-2-oxo-N-pyrimidin-2-yl-6,7-dihydro-5H-cyclopenta[b]pyridine-3-carboxamide] showed an EC50 of 25.1 nM. With `CC1CCc2c1c(O)c(C(=O)Nc1ncc(C(F)(F)F)cn1)c(=O)n2C` (stereo not drawn) [Example 32, 4-Hydroxy-1,5-dimethyl-2-oxo-N-[5-(trifluoromethyl)pyrimidin-2-yl]-6,7-dihydro-5H-cyclopenta[b]pyridine-3-carboxamide] the EC50 was 0.845 nM. `C[C@H]1CCc2c1cc(C(=O)Nc1ccccn1)c(=O)n2C` [Example 22, (5S)-1,5-Dimethyl-2-oxo-N-(2-pyridyl)-6,7-dihydro-5H-cyclopenta[b]pyridine-3-carboxamide] gave an EC50 of 4.1 nM. Work on `CC1CCc2c1c(O)c(C(=O)Nc1ccc(F)cn1)c(=O)n2C` (single isomer, unassigned) [Example 99, N-(5-Fluoro-2-pyridyl)-4-hydroxy-1,5-dimethyl-2-oxo-6,7-dihydro-5H-cyclopenta[b]pyridine-3-carboxamide] yielded an EC50 of 2.12 nM. `C[C@H]1CCc2c1cc(C(=O)Nc1ccns1)c(=O)n2C` [Example 17, (5S)-N-Isothiazol-5-yl-1,5-dimethyl-2-oxo-6,7-dihydro-5H-cyclopenta[b]pyridine-3-carboxamide] was tested, and the EC50 was 1.34 nM. `Cn1c2c(cc(C(=O)Nc3ccccc3)c1=O)CCC2` [Example 108, 1-Methyl-2-oxo-N-phenyl-6,7-dihydro-5H-cyclopenta[b]pyridine-3-carboxamide] gave an EC50 of 2.5 nM. `CC1Cc2cc(C(=O)Nc3ncccn3)c(=O)n(C)c2C1` (stereo not drawn) [Example 79, 1,6-Dimethyl-2-oxo-N-pyrimidin-2-yl-6,7-dihydro-5H-cyclopenta[b]pyridine-3-carboxamide] was tested, and the EC50 was 20.3 nM. Work on `C[C@H]1CCc2c1cc(C(=O)Nc1ccsn1)c(=O)n2C` [Example 19, (5S)-N-Isothiazol-3-yl-1,5-dimethyl-2-oxo-6,7-dihydro-5H-cyclopenta[b]pyridine-3-carboxamide] yielded an EC50 of 1.04 nM. `CC1CCc2c1cc(C(=O)Nc1ncccn1)c(=O)n2C` (single isomer, unassigned) [Example 80, 1,5-Dimethyl-2-oxo-N-pyrimidin-2-yl-6,7-dihydro-5H-cyclopenta[b]pyridine-3-carboxamide] was tested, and the EC50 was 10.9 nM. Work on `CCC1CCc2c1cc(C(=O)Nc1ncc(F)cn1)c(=O)n2C` (single isomer, unassigned) [Example 114, 5-ethyl-N-(5-fluoropyrimidin-2-yl)-1-methyl-2-oxo-6,7-dihydro-5H-cyclopenta[b]pyridine-3-carboxamide] yielded an EC50 of 2.44 nM. Work on `COc1cnc(NC(=O)c2c(O)c3c(n(C)c2=O)CCC3C)nc1` (stereo not drawn) [Example 27, 4-Hydroxy-N-(5-methoxypyrimidin-2-yl)-1,5-dimethyl-2-oxo-6,7-dihydro-5H-cyclopenta[b]pyridine-3-carboxamide] yielded an EC50 of 6.41 nM. With `CC1CCc2c1c(O)c(C(=O)Nc1ccc(C(F)(F)F)nc1)c(=O)n2C` (stereo not drawn) [Example 28, 4-Hydroxy-1,5-dimethyl-2-oxo-N-[6-(trifluoromethyl)-3-pyridyl]-6,7-dihydro-5H-cyclopenta[b]pyridine-3-carboxamide] the EC50 was 3.68 nM. `CC1Cc2c(O)c(C(=O)Nc3ncccn3)c(=O)n(C)c2C1` (single isomer, unassigned) [Example 84, 4-Hydroxy-1,6-dimethyl-2-oxo-N-pyrimidin-2-yl-6,7-dihydro-5H-cyclopenta[b]pyridine-3-carboxamide] gave an EC50 of 8.67 nM.
